What is called IC50 is the concentration needed to halve the response being measured. Broadly, the Kd is the equilibrium constant for the complex coming apart.

This is an account of results in patent US10894786B2, “Substituted pyrazole derivatives as selective CDK12/13 inhibitors” (Aurigene Discovery Technologies Limited, priority 2018, dated 2021).

Experiment [1] has as its target T1, CDK12 (Homo sapiens (Human), UniProt Q9NYV4). Put plainly: Biochemical assay for CDK12 (IC50 determination), LANCE TR-FRET. The settings on record: for IC50: ATP 100 μM, 60 min pre-incubation. The method, then:
The inhibitory activity of the test compounds was assessed by the LANCE TR-FRET assay, which detects the ATP-dependent phosphorylation of an ULight-4E-BP1 (Thr37/Thr46) substrate peptide (100 nM) by CDK12 (30 nM). Briefly, the enzyme reaction was run in reaction buffer (25 mM HEPES (pH 7.5), 10 mM MgCl2, 0.01% BSA, 0.01% Triton x, 1 mM DTT). The assay was performed in 384-well plate format. The end concentration of the ATP substrate was 100 μM, and that of the ULight-4E-BP1 (Thr37/Thr46) substrate peptide was 100 nM, and of CDK12 was 30 nM. Pre-incubation of the compound and enzyme was performed for 60 min at room temperature. After 60 min incubation at room temperature, the reaction was terminated by the addition of 40 mM EDTA and 0.5 nM Eu-labeled anti-phospho-eIF4E-binding protein (Thr37/46) antibody in LANCE detection buffer. […] The readout was calculated as (acceptor counts/donor counts)×1000. The IC50 values were derived by fitting a sigmoidal dose-response curve to a plot of assay readout over inhibitor concentration.
Target sequence in this assay (Q9NYV4 whole entry, looked up, species assumed): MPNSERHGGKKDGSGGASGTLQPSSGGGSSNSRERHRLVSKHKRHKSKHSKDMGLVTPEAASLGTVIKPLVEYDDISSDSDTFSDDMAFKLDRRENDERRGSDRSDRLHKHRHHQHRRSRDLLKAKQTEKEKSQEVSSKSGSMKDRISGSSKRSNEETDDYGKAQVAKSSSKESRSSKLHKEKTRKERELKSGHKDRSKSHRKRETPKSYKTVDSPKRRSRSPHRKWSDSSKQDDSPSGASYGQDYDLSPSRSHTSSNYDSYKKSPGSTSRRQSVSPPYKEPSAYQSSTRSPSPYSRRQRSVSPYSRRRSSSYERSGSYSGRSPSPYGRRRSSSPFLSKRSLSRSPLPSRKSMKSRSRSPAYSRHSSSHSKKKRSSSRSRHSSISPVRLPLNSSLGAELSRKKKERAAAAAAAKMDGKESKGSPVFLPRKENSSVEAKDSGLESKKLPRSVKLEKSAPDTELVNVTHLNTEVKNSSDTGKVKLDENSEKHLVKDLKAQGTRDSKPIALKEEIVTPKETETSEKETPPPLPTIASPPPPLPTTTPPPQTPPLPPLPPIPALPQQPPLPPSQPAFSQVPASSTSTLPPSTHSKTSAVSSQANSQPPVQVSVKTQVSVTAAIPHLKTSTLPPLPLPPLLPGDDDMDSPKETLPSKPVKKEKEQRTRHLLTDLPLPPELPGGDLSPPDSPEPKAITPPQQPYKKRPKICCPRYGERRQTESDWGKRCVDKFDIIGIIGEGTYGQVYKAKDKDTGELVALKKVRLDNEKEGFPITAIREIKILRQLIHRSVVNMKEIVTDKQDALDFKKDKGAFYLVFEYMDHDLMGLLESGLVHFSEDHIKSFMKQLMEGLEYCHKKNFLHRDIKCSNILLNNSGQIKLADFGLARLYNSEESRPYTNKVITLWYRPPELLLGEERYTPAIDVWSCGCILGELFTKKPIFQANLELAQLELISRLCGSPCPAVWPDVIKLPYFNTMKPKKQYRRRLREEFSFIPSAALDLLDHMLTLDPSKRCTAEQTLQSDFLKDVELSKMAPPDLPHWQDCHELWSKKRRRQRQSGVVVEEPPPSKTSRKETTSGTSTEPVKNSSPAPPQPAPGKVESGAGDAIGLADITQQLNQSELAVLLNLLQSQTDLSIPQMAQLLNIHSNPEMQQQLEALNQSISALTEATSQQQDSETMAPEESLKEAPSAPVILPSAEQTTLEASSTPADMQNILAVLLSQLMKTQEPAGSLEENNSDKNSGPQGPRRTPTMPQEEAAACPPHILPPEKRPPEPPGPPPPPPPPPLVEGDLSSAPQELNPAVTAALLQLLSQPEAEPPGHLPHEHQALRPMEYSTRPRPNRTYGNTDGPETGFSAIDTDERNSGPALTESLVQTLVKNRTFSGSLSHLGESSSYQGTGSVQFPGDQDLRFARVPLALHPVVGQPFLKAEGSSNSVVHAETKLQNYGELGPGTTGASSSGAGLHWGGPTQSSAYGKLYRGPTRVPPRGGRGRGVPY
Target sequence in this assay (O75909 whole entry partner, looked up, species assumed): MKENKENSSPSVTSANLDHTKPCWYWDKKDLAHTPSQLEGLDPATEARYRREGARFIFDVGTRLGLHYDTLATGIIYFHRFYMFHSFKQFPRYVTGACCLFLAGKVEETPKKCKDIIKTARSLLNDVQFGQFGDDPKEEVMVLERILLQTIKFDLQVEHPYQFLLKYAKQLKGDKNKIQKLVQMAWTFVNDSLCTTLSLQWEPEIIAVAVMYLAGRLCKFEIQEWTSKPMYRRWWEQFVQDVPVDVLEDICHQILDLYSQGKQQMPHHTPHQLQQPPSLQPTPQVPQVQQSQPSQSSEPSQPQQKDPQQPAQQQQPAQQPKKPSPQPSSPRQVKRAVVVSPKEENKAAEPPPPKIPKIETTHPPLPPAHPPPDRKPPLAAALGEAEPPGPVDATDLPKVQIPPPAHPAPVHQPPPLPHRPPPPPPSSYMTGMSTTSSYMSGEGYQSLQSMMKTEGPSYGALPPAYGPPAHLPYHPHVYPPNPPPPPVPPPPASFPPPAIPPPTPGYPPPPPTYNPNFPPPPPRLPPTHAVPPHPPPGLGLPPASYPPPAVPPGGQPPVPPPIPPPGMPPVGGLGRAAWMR
In general terms: TR-FRET usually uses a lanthanide donor and a delayed reading to cut background.

Another experiment concerns the target CDK13 (Homo sapiens (Human), UniProt Q14004). Put plainly: Biochemical assay for CDK13, LanthaScreen Eu Kinase Binding Assay. Particulars: for IC50: kinase tracer 236 100 nM; for Ratio CDK7/CDK13: ratio of IC50. The text has this:
Binding of an inhibitor to the kinase competes for binding with the tracer, resulting in a loss of FRET signal.

Experiment [2] addresses T1, CDK12. The experiment in a line: Biochemical assay for CDK12 (Kd determination), kinase-tagged phage/qPCR competition binding. The protocol:
Kinase-tagged T7 phage strains were grown in parallel in 24-well blocks in an E. coli host derived from the BL21 strain. E. coli were grown to log-phase and infected with T7 phage from a frozen stock (multiplicity of infection=0.4) and incubated with shaking at 32° C. until lysis (90-150 minutes). The lysates were centrifuged (6,000×g) and filtered (0.2 μm) to remove cell debris. The remaining kinases were produced in HEK-293 cells and subsequently tagged with DNA for qPCR detection. […] The liganded beads were blocked with excess biotin and washed with blocking buffer (SeaBlock (Pierce), 1% BSA, 0.05% Tween 20, 1 mM DTT) to remove unbound ligand and to reduce non-specific phage binding. […] Test compounds were prepared as 40× stocks in 100% DMSO and directly diluted into the assay. All reactions were performed in polypropylene 384-well plates in a final volume of 0.02 ml. […] The kinase concentration in the eluates was measured by qPCR.
Target sequence in this assay (Q9NYV4 whole entry, species assumed): as the sequence (Q9NYV4 whole entry, looked up, species assumed) above
(In general: Real-time PCR tracks product formation cycle by cycle.)

A further experiment has as its target CDK7 (Homo sapiens (Human), UniProt P50613). The experiment in a line: Biochemical assay for CDK7, LANCE TR-FRET. The settings on record: ATP 1 mM/100 μM, 60 min pre-incubation; read-out: CDK 7 IC50. The method, then:
The inhibitory activity of the test compounds was assessed by the LANCE TR-FRET assay, which detects the ATP-dependent phosphorylation of an ULight-myelin basic protein (MBP) substrate peptide (100 nM) by CDK7 (10 nM). Briefly, the enzyme reaction was run in reaction buffer (20 mM HEPES (pH 7.5), 10 mM MgCl2, 0.01% Triton x, 100 μM Sodium Orthovanadate, 1 mM DTT). The assay was performed in 384-well plate. The end concentration of the ATP substrate was 1 mM/100 μM, and that of the ULight-MBP substrate peptide was 100 nM, and of CDK7 was 10 nM. Pre-incubation of the compound and enzyme was performed for 60 min at room temperature. After 60 min incubation at room temperature, the reaction was terminated by the addition of 40 mM EDTA and 1 nM Eu-labeled anti-phospho-MBP-binding protein antibody in the buffer. […] The readout was calculated as (acceptor counts/donor counts)×1000. The IC50 values were derived by fitting a sigmoidal dose-response curve to a plot of assay readout over inhibitor concentration.

Sequence of CDK7 (P50613 whole entry, looked up, species assumed): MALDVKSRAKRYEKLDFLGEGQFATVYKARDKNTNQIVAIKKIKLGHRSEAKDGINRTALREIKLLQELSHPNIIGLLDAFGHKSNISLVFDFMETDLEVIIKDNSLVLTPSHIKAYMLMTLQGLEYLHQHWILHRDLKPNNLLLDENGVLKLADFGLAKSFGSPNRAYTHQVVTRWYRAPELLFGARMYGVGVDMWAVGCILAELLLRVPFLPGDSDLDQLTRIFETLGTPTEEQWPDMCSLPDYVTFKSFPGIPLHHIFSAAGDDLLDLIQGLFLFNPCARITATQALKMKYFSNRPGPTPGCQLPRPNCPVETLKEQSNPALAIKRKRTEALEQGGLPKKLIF
Sequence of CDK7 (P51946 whole entry partner, looked up, species assumed): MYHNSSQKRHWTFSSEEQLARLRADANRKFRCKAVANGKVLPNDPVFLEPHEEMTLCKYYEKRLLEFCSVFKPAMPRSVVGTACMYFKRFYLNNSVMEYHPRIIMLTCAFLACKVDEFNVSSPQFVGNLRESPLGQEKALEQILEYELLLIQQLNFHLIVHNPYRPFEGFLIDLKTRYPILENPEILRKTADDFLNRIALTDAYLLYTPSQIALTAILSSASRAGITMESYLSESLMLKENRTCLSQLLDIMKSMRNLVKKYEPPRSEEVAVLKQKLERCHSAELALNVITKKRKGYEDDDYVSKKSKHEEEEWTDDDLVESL
Sequence of CDK7 (P51948 whole entry partner, looked up, species assumed): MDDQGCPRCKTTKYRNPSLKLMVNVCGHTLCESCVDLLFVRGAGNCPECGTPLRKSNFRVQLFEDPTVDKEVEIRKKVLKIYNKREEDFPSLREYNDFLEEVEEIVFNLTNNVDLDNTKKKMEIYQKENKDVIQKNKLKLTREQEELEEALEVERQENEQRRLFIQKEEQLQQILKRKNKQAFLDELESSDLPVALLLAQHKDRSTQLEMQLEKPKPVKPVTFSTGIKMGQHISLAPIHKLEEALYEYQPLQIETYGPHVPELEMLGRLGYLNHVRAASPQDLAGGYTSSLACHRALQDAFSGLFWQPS
Sequence of CDK13 (Q14004 whole entry, looked up, species assumed): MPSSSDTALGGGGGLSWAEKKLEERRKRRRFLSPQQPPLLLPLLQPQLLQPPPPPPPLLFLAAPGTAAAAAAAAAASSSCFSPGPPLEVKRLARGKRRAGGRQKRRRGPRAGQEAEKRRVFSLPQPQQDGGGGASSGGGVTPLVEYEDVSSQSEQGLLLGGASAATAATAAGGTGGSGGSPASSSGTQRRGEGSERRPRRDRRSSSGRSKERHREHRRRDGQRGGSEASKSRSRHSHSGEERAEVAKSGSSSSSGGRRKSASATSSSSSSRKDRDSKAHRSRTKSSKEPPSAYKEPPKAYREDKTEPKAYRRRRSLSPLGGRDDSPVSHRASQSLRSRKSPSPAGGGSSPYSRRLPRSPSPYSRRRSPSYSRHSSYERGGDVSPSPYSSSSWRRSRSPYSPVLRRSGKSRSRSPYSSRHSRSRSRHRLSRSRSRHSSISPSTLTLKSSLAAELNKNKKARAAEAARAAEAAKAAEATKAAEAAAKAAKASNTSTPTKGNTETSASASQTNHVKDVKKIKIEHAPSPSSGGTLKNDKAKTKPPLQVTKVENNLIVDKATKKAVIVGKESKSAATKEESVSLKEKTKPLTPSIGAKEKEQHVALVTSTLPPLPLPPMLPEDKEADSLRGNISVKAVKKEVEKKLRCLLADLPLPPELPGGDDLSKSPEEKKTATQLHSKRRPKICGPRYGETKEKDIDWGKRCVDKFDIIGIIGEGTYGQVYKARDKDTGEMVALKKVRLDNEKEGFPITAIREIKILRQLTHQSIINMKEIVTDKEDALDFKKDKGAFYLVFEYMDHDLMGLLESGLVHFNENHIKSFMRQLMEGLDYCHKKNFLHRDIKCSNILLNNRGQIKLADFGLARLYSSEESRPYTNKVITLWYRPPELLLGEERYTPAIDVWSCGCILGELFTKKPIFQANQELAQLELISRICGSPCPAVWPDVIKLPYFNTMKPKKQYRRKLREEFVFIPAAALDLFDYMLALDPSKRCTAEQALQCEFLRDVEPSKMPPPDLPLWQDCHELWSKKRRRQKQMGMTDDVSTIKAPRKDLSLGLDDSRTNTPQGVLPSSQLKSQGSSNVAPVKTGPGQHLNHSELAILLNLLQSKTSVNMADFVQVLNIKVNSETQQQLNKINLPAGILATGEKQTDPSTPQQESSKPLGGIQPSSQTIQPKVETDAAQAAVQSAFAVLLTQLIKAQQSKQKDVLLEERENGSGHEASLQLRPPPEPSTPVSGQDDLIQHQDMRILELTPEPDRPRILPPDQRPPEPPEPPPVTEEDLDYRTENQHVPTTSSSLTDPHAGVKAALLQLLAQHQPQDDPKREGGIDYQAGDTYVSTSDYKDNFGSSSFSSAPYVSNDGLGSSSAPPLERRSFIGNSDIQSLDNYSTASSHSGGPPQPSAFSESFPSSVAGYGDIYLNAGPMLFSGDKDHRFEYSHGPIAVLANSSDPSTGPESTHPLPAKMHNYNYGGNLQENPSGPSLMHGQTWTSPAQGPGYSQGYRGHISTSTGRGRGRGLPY
Sequence of CDK13 (O75909 whole entry partner, looked up, species assumed): as the sequence (O75909 whole entry partner, looked up, species assumed) above

On to `C=CC(=O)N1CC=C(c2ccc(C(C)C(=O)Nc3cc(C4CC4)[nH]n3)cn2)CC1` (single isomer, unassigned) [Compound 5, 2-(1′-acryloyl-1′,2′,3′,6′-tetrahydro-[2,4′-bipyridin]-5-yl)-N-(5-cyclopropyl-1H-pyrazol-3-yl)propanamide], for which, at CDK12 [1], the “Ratio CDK7/CDK12” value is 7.64 and the midpoint of inhibition, the IC50, lay at 1310 nM. In addition, at CDK13, the IC50 stood at 77 nM and the “Ratio CDK7/CDK13” value turned out to be 129.87. At CDK12 [2], this compound had a Kd of 25 to 100 nM. Besides, on CDK7, the IC50 is over 10000 nM.
On to `C=CC(=O)NC1CCC(c2ccc(C(C)C(=O)Nc3cc(C4CC4)n[nH]3)cc2)CC1` (single isomer, unassigned) [Compound 10, N-(4-(4-(1-((5-cyclopropyl-1H-pyrazol-3-yl)amino)-1-oxopropan-2-yl)phenyl)cyclohexyl)acrylamide], for which the IC50 on CDK12 [1] came to 740 nM; at CDK13 it was 18 nM; on CDK7, 5490 nM. Further, at CDK12 [2], the Kd was under 25 nM.
In the same order, the values of `C=CC(=O)NC1CCC(c2ccc(C(C)C(=O)Nc3cc(C4CC4)n[nH]3)cc2)CC1` (single isomer, unassigned) [Compound 11, N-(4-(4-(1-((5-cyclopropyl-1H-pyrazol-3-yl)amino)-1-oxopropan-2-yl)phenyl)cyclohexyl)acrylamide] are 1020 nM, 45 nM, 3650 nM and 25 to 100 nM.
As for `C=CC(=O)N1CCN(c2ccc(C(C)C(=O)Nc3cc(C4CC4)[nH]n3)cc2)CC1` (single isomer, unassigned) [Compound 18, 2-(4-(4-acryloylpiperazin-1-yl)phenyl)-N-(5-cyclopropyl-1H-pyrazol-3-yl)propanamide], the 50% inhibitory concentration (IC50) at CDK12 [1] stood at 238 nM; on CDK13 it was 11.7 nM; at CDK7, 2320 nM. At CDK12 [2], this compound yielded a Kd of 25 to 100 nM.
`C=CC(=O)N1CCN(c2ccc(C(C)C(=O)Nc3cc(C4CC4)[nH]n3)cc2)CC1` (single isomer, unassigned) [Compound 19, 2-(4-(4-acryloylpiperazin-1-yl)phenyl)-N-(5-cyclopropyl-1H-pyrazol-3-yl)propanamide]: the 50% inhibitory concentration (IC50) at CDK13 was 5810 nM. In addition, the Kd on CDK12 [2] is over 100 nM.
`C=CC(=O)N1CCC=C(c2ccc(C(C)C(=O)Nc3cc(C4CC4)[nH]n3)cn2)C1` (single isomer, unassigned) [Compound 36, 2-(1′-acryloyl-1′,2′,5′,6′-tetrahydro-[2,3′-bipyridin]-5-yl)-N-(5-cyclopropyl-1H-pyrazol-3-yl)propanamide]: the concentration for half-maximal inhibition (IC50) is 686 nM against CDK12 [1] and 153 nM at CDK13. Moreover, at CDK12 [2], the dissociation constant Kd was 25 to 100 nM.
Regarding `C=CC(=O)N1CC=C(c2ccc(C(C(=O)Nc3cc(C4CC4)[nH]n3)C(C)C)cc2)CC1` (stereo not shown) [Compound 3, 2-(4-(1-acryloyl-1,2,3,6-tetrahydropyridin-4-yl)phenyl)-N-(5-cyclopropyl-1H-pyrazol-3-yl)-3-methylbutanamide], at CDK13, the half-inhibitory concentration (IC50) was 101 nM and the “Ratio CDK7/CDK13” value amounted to 5.0. For the same compound, the dissociation constant (Kd) on CDK12 [2] is over 100 nM. Moreover, the IC50 on CDK7 worked out at 506 nM.
As to `C=CC(=O)N1CC=C(c2ccc(C(C)C(=O)Nc3cc(C4CC4)[nH]n3)cn2)CC1` (stereo not shown) [Compound 4, 2-(1′-acryloyl-1′,2′,3′,6′-tetrahydro-[2,4′-bipyridin]-5-yl)-N-(5-cyclopropyl-1H-pyrazol-3-yl)propanamide], the “Ratio CDK7/CDK12” value at CDK12 [1] is 23.75. Besides, the IC50 on CDK12 [1] is 72 nM; on CDK13 it was 3 nM; at CDK7, 1710 nM. Besides, on CDK13, the “Ratio CDK7/CDK13” value came out at 570.0. On CDK12 [2], the equilibrium dissociation constant (Kd) is under 25 nM.
On to `C=CC(=O)N1CC=C(c2ccc(C(C(=O)Nc3cc(C4CC4)[nH]n3)C(C)C)cn2)CC1` (stereo not shown) [Compound 7, 2-(1′-acryloyl-1′,2′,3′,6′-tetrahydro-[2,4′-bipyridin]-5-yl)-N-(5-cyclopropyl-1H-pyrazol-3-yl)-3-methylbutanamide], for which, on CDK13, the IC50 was found to be 398 nM and the “Ratio CDK7/CDK13” value is reported as 1.86. On CDK12 [2], this compound displayed a Kd of over 100 nM. Also, at CDK7, the concentration for half-maximal inhibition (IC50) was 744 nM.
For `C=CC(=O)NC1CC=C(c2ccc(C(C)C(=O)Nc3cc(C4CC4)[nH]n3)cc2)CC1` (stereo not shown) [Compound 8, N-(4′-(1 ((5-cyclopropyl-1H-pyrazol-3-yl)amino)-1-oxopropan-2-yl)-2,3,4,5-tetrahydro-[1,1′-biphenyl]-4-yl)acrylamide], the values for the IC50 at CDK12 [1] and at CDK13 were 380 nM and 19 nM, respectively. In addition, the Kd on CDK12 [2] is 25 to 100 nM.
For the compound `C=CC(=O)N1CCC(c2ccc(C(C)C(=O)Nc3cc(C4CC4)[nH]n3)cn2)CC1` (stereo not shown) [Compound 13, 2-(6-(1-acryloylpiperidin-4-yl)pyridin-3-yl)-N-(5-cyclopropyl-1H-pyrazol-3-yl)propanamide], on CDK12 [1], the “Ratio CDK7/CDK12” value turned out to be 172.41 and the 50% inhibitory concentration (IC50) was 58 nM. Further, at CDK13, the concentration for half-maximal inhibition (IC50) was found to be 28 nM and the “Ratio CDK7/CDK13” value worked out at 357.14. The IC50 on CDK7 is over 10000 nM.
Regarding `C=CC(=O)NC1CCN(c2ccc(C(C)C(=O)Nc3cc(C4CC4)[nH]n3)cc2)CC1` (stereo not shown) [Compound 21, N-(1-(4-(1-((5-cyclopropyl-1H-pyrazol-3-yl)amino)-1-oxopropan-2-yl)phenyl)piperidin-4-yl)acrylamide], the values for the half-maximal inhibitory concentration (IC50) at CDK12 [1] and at CDK13 were 235 nM and 73 nM, respectively. Further, the Kd on CDK12 [2] is under 25 nM.
Regarding `C=CC(=O)N1CC=C(c2ccc(C(C)C(=O)Nc3cc(C4CC4)[nH]n3)cn2)C1` (stereo not shown) [Compound 38, 2-(6-(1-acryloyl-2,5-dihydro-1H-pyrrol-3-yl)pyridin-3-yl)-N-(5-cyclopropyl-1H-pyrazol-3-yl)propanamide], on CDK12 [1], the “Ratio CDK7/CDK12” value was 29.7 and half-maximal inhibition (IC50) required 34 nM. On CDK13, the 50% inhibitory concentration (IC50) was determined as 100 nM and the “Ratio CDK7/CDK13” value amounted to 10.1. Besides, the half-inhibitory concentration (IC50) at CDK7 stood at 1010 nM.
In the same order, the values of `C=CC(=O)N1CCCC(c2ccc(C(C)C(=O)Nc3cc(C4CC4)[nH]n3)cn2)C1` (stereo not shown) [Compound 41, 2-(6-(1-acryloylpiperidin-3-yl)pyridin-3-yl)-N-(5-cyclopropyl-1H-pyrazol-3-yl)propanamide] are 9.91, 354 nM, 29 nM, 121.03 and 3510 nM.
For `C=CC(=O)N1CCC=C(c2ccc(C(C)C(=O)Nc3cc(C4CC4)[nH]n3)cc2F)C1` (stereo not shown) [Compound 42, 2-(4-(1-acryloyl-1,2,5,6-tetrahydropyridin-3-yl)-3-fluorophenyl)-N-(5-cyclopropyl-1H-pyrazol-3-yl)propanamide], in that order: 31.42, 14 nM, 87 nM, 5.05 and 440 nM.
In the same order, the values of `C=CC(=O)N1CC=C(c2ccc(C(C)C(=O)Nc3cc(C4CC4)[nH]n3)cc2F)CC1` (stereo not shown) [Compound 45, 2-(4-(1-acryloyl-1,2,3,6-tetrahydropyridin-4-yl)-3-fluorophenyl)-N-(5-cyclopropyl-1H-pyrazol-3-yl)propanamide] are 12.94, 445 nM, 260 nM, 22.15 and 5760 nM.
As to `CC#CC(=O)N1CC=C(c2ccc(C(C)C(=O)Nc3cc(C4CC4)[nH]n3)cn2)CC1` (stereo not shown) [Compound 51, 2-(1′-(but-2-ynoyl)-1′,2′,3′,6′-tetrahydro-[2,4′-bipyridin]-5-yl)-N-(5-cyclopropyl-1H-pyrazol-3-yl)propanamide], at CDK12 [1], the “Ratio CDK7/CDK12” value is given as 8.33 and the 50% inhibitory concentration (IC50) is 203 nM. For the same compound, at CDK13, the IC50 is 25 nM and the “Ratio CDK7/CDK13” value stood at 67.68. Also, the IC50 on CDK7 worked out at 1690 nM.
